Experimental data reported in patent US20120041070A1, “METHODS OF TREATING CANCER HAVING AN ABERRANT EGFR OR KRAS GENOTYPE” (priority 2009, published 2012).
Where two headings read alike, the source gives them in different places.

Experiments:
[1] = tested on: A549 NSCL (KRAS mutant) cells; assay: A549 cell proliferation assay (Cell TiterGlow, total ATP); assay type: cell-based; settings: for EC50: Homo sapiens, A549, DMEM 10% FBS, 72 hours, Cell TiterGlow, read-out: EC50, inhibition of A549 cell proliferation
Method: To investigate the effect of phenformin on proliferation of a commonly used cancer cell line A549 NSCL (KRAS mutant), a cell proliferation assay was performed. A549 cells were grown in DMEM with 10% FBS, and were treated with designated concentrations (phenformin dose range 0-100 μM; metformin dose range 0-3000 μM) of drugs for 72 hours. Cell viability was determined with Cell TiterGlow to measure total ATP content in live cells.

[2] = tested on: HME-TERT-EGFR (del E746-A750) cells; assay: MTS cell proliferation assay, HME-TERT cells carrying EGFR mutation; assay type: cell-based, human; settings: for EC50: Homo sapiens, HME-TERT-EGFR (del E746-A750), MTS, 0.5% FBS, read-out: Inhibition of cell proliferation: EC50, EGFR
Method: (§1) To investigate the effect of phenformin on proliferation of cells carrying an EGFR mutation, HME cell proliferation assays were performed. An isogenic HME-TERT cell line carrying a mutation in EGFR (del E746-A750) was generated by a “knock in” approach. HME-TERT-EGFR (del E746-A750) cells and control HME parental cells were cultured in DMEM/F12K (glucose 17 mM, glutamine 2.5 mM) with 0.5% FBS, and were treated with a series of dilution of Paclitaxel (100 nM top concentration, 3-fold dilution), Phenformin (3 mM top concentration, 3-fold dilution), or metformin (10 mM top concentration, 3-fold dilution), in duplication or triplication. MTS assays were performed 48, 72, 96 or 120 hours after drug treatment. MTS assay is a colorimetric assay for determining the number of viable cells (see, e.g., Cory A H et al., 1991, Cancer communications 3 (7): 207-12, and Wilson, A P, Cytotoxicity and Viability Assays in Animal Cell Culture: A Practical Approach, 3rd ed. (ed. Masters, J. R. W.) Oxford University Press, 2000, Vol. 1). […] Z′ is defined as Z′=1-3(MAX stdev−background stdev)/(MAX−background). A Z′ value greater than 0.4 is acceptable for cell assays, and a Z′ value greater than 0.6 is acceptable for enzyme assays.

[3] = tested on: HME-TERT-KRAS (G13D) cells; assay: MTS cell proliferation assay, HME-TERT cells carrying KRAS mutation; assay type: cell-based, human; settings: for EC50: Homo sapiens, HME-TERT-KRAS (G13D), MTS, 0.5% FBS, read-out: Inhibition of cell proliferation: EC50, KRAS
Method: (§2) To investigate the effect of phenformin on proliferation of cells carrying a KRAS mutation, HME cell proliferation assays were performed. An isogenic HME-TERT cell line carrying a mutation in KRAS (G13D) was generated by a “knock in” approach. HME-TERT-KRAS (G13D) cells and control HME parental cells were cultured in DMEM/F12K (glucose 17 mM, glutamine 2.5 mM) with 0.5% FBS, and were treated with a series of dilution of Paclitaxel (100 nM top concentration, 3-fold dilution), Phenformin (3 mM top concentration, 3-fold dilution), or metformin (10 mM top concentration, 3-fold dilution), in duplication or triplication. MTS assays were performed 48, 72, 96 or 120 hours after drug treatment. MTS assay is a colorimetric assay for determining the number of viable cells (see, e.g., Cory A H et al., 1991, Cancer communications 3 (7): 207-12, and Wilson, A P, Cytotoxicity and Viability Assays in Animal Cell Culture: A Practical Approach, 3rd ed. (ed. Masters, J. R. W.) Oxford University Press, 2000, Vol. 1). […] Z′ is defined as Z′=1-3(MAX stdev−background stdev)/(MAX−background). A Z′ value greater than 0.4 is acceptable for cell assays, and a Z′ value greater than 0.6 is acceptable for enzyme assays.

[4] = tested on: HME-TERT parental (wild type) cells; assay: MTS cell proliferation assay, control HME parental (WT) cells; assay type: cell-based; settings: Homo sapiens, 0.5% FBS, read-out: Inhibition of cell proliferation: EC50, WT
Method: as §1, §2

EC50 [1]	SMILES	EC50 ([2]; 48 h)	EC50 ([2]; 72 h)	EC50 ([2]; 96 h)	EC50 ([2]; 120 h)	EC50 ([3]; 48 h)	EC50 ([3]; 72 h)	EC50 ([3]; 96 h)	EC50 ([3]; 120 h)	EC50 ([4]; 48 h after drug treatment)	EC50 ([4]; 72 h after drug treatment)	EC50 ([4]; 96 h after drug treatment)	EC50 ([4]; 120 h after drug treatment)	fold more sensitive than metformin in inhibiting the proliferation of A549 cells ([1]; A549, 72 hours, ratio of EC50 values)	inhibition of proliferation of EGFR mutated HME cells compared with wild type cells ([2]; MTS assay, result in words)	inhibition of proliferation of KRAS mutated HME cells compared with wild type cells ([3]; MTS assay, result in words)
650 µM	CN(C)C(=N)N=C(N)N [metformin]	> 3000 µM	> 3000 µM	> 3000 µM	> 3000 µM	> 3000 µM	> 3000 µM	> 3000 µM	> 3000 µM	> 3000 µM	> 3000 µM	> 3000 µM	> 3000 µM			
5 µM	N=C(N)NC(=N)NCCc1ccccc1 [phenformin]	1680 µM	632 µM	486 µM	393 µM	1640 µM	1250 µM	727 µM	440 µM	2090 µM	1690 µM	1140 µM	626 µM	about 112 fold	more than that of wild type cells	more than that of wild type cells
